As a reminder, the IC50 is the concentration that gives 50% inhibition.

This experiment deals with interaction between p53 and MDM2 proteins (Homo sapiens, UniProt Q00987). In words: HTRF assay of inhibition of the p53-MDM2 interaction (GST-MDM2 / biotinylated p53 peptide). In kind it is binding. The note with it: 0.02% BSA. On the procedure: The ability of the compounds to inhibit the interaction between p53 and MDM2 proteins was measured by an HTRF (homogeneous time-resolved fluorescence) assay in which recombinant GST-tagged MDM2 binds to a peptide that resembles the MDM2-interacting region of p53 (Lane et al.). Binding of GST-MDM2 protein and p53-peptide (biotinylated on its N-terminal end) is registered by the FRET (fluorescence resonance energy transfer) between Europium (Eu)-labeled anti-GST antibody and streptavidin-conjugated Allophycocyanin (APC).
interaction between p53 and MDM2 proteins, sequence (Q00987 whole entry): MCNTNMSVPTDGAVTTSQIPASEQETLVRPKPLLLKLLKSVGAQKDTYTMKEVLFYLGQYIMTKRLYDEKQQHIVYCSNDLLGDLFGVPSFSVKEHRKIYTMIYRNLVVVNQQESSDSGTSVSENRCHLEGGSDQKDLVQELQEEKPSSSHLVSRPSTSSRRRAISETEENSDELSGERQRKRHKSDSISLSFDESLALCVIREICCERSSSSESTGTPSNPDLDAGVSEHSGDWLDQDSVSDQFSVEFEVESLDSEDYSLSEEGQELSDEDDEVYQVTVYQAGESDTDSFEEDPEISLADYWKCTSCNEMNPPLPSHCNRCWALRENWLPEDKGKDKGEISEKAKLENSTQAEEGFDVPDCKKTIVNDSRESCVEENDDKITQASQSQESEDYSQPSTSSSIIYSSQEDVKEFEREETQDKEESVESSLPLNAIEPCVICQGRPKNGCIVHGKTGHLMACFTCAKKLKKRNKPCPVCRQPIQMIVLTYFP
Test is performed in black flat-bottom 384-well plates (Costar) in a total volume of 40 uL containing: 90 nM biotinylate peptide, 160 ng/ml GST-MDM2, 20 nM streptavidin-APC (PerkinElmerWallac), 2 nM Eu-labeled anti-GST-antibody (PerkinElmerWallac), 0.2% bovine serum albumin (BSA), 1 mM dithiothreitol (DTT) and 20 mM […] (TBS) buffer as follows: Add 10 uL of GST-MDM2 (640 ng/ml working solution) in reaction buffer to each well. Add 10 uL diluted compounds (1:5 dilution in reaction buffer) to each well, mix by shaking. Add 20 uL biotinylated p53 peptide (180 nM working solution) in reaction buffer to each well and mix on shaker. Incubate at 37° C. for 1 h. Add 20 uL streptavidin-APC and Eu-anti-GST antibody mixture (6 nM Eu-anti-GST and 60 nM streptavidin-APC working solution) in TBS buffer with 0.2% BSA, shake at room temperature for 30 minutes and read using a TRF-capable plate reader at 665 and 615 nm (Victor 5, Perkin ElmerWallac).
In general terms: Time-resolved FRET reads energy transfer from a long-lived donor to a nearby acceptor.
`Cc1ccc(F)cc1[C@@H]1NC(=S)C[C@H](c2cc(Cl)ccc2OC(C)(C)C(=O)O)[C@@]12C(=O)Nc1cc(Cl)ccc12` [Example 8, chiral (2′S, 3S, 4′R)-6-chloro-4′-[5-chloro-2-(1-hydroxycarbonyl-1-methyl-ethoxy)-phenyl]-2′-(5-fluoro-2-methyl-phenyl)-6′-thioxo spiro[3H-indole-3,3′-piperidine]-2(1H)-one]: the IC50 was 0.05 µM.
Regarding `COC(=O)C1(Oc2ccc(Cl)cc2[C@H]2CC(=S)N[C@@H](c3cc(F)ccc3C)[C@]23C(=O)Nc2cc(Cl)ccc23)CCC1` (racemic) [Example 50, racemic (2′S, 3S, 4′R)-6-chloro-4′-[5-chloro-2-(1-methoxycarbonyl-cyclobutoxy)-phenyl]-2′-(5-fluoro-2-methyl-phenyl)-6′-thioxo spiro[3H-indole-3,3′-piperidine]-2(1H)-one], the midpoint of inhibition, the IC50, lay at 4.33 µM.
Next, `COc1cc(F)c(Cl)cc1[C@@H]1CC(=S)N[C@H](c2cc(F)ccc2C)[C@@]12C(=O)Nc1cc(Cl)ccc12` (racemic) [Example 62]: 1.09 µM; `CONC(=O)C(C)(C)Oc1ccc(Cl)cc1[C@H]1CC(=S)N[C@@H](c2cc(F)ccc2C)[C@]12C(=O)Nc1cc(Cl)ccc12` (racemic) [Example 73, racemic (2′S, 3S, 4′R)-6-chloro-4′-[5-chloro-2-(1-methoxycarbamoyl-1-methyl-ethoxy)-phenyl]-2′-(5-fluoro-2-methyl-phenyl)-6′-thioxo spiro[3H-indole-3,3′-piperidine]-2(1H)-one]: 0.607 µM.
Next, `CCC(CC)(Oc1ccc(Cl)cc1[C@H]1CC(=S)N[C@@H](c2cc(F)ccc2C)[C@]12C(=O)Nc1cc(Cl)ccc12)C(=O)NS(C)(=O)=O` [Example 24, chiral (2′S, 3S, 4′R)-6-chloro-4′-[5-chloro-2-(2-methanesulfonylamino-1,1-diethyl-2-oxo-ethoxy)-phenyl]-2′-(5-fluoro-2-methyl-phenyl)-6′-thioxo spiro[3H-indole-3,3′-piperidine]-2(1H)-one]: 0.022 µM.

Source of the values: patent US8076482B2, “3,3′-spiroindolinone derivatives” (Hoffmann-La Roche Inc., priority 2009, dated 2011).
